According to article PMC6593224, “Validation and Invalidation of Chemical Probes for the Human N-myristoyltransferases” (Cell Chemical Biology, 2019):
“Also recorded” adds a separate entry of the source. Read-outs that look alike come from different tables or passages of the source.

Key:
both NMTs = molecular target: both NMTs; design: method as in Mousnier et al., 2018; details: ref Mousnier et al., 2018; cited from earlier work
[1] = system: NMT (in-cell target engagement, ARL1); assay: Sortase A assay (peptide addition to ARL1), human cell lines
Method: (§1) The homogenate was further disrupted by shearing it three times through a 30G needle. […] Hereafter the reaction was quenched with 5 mM EDTA and stored at −20°C until further analysis.

[2] = system: N-myristoylated proteome (NMT substrates); assay: Quantitative chemical proteomics of YnMyr-tagged proteins; assay type: cell-based, human; details: MDA-MB-231 (n = 75)
Source text: HeLa and MDA-MB-231 cells were exposed (in triplicate) to 1–5, in a setup identical to that used for in-gel analyses (Figure 2A), with the exception that YnMyr-tagged proteins were ligated to AzRB. Labeled proteins were enriched on NeutrAvidin-agarose and digested on-resin with trypsin; peptides were labeled with tandem mass tag, and analyzed and quantified by nano-liquid chromatography-tandem mass spectrometry on a Thermo Q-Exactive instrument.
Cysteine carbamidomethylation was used as a fixed modification and methionine oxidation and N-terminal acetylation as variable modifications. ‘Trypsin/P’ was chosen as digestion mode enzyme, and up to two missed cleavages were allowed. The ‘match between run’ option was selected, along with ‘unique and razor peptides’ for protein quantification. TMT was set per sample group. […] The false discovery rate was set to 0.01 for peptides and a minimum of 2 unique peptides per protein were required. The mass spectrometry proteomics data have been deposited to the ProteomeXchange Consortium via the PRIDE partner repository with the dataset identifier PXD012722.

[3] = system: NMT within living cells (N-myristoylation); assay: YnMyr metabolic tagging, in-gel fluorescence; details: for N-myristoylation in cells (summary of assays): 1 μM IMP-366, 100 nM IMP-1088, 100 μM 2-hydroxymyristic acid, 30 μM D-NMAPPD, 10 μM Tris-DBA palladium, 18 h; for quantification of YnMyr tagging of ten bands: MDA-MB-231 and HeLa, 100 μM 3, 30 μM 4, 10 μM 5
[4] = molecular target: T1, recombinant human N-myristoyltransferase 1 (rNMT1) (Homo sapiens, UniProt P30419); assay: Enzymatic HsNMT1 assay (CPM detection of CoA thiol by-product); assay type: biochemical; details: for rNMT1 activity: below 300 μM
T1 construct: Full-length HsNMT1 enzyme was produced as previously described; made in house
T1 sequence (P30419 1-496): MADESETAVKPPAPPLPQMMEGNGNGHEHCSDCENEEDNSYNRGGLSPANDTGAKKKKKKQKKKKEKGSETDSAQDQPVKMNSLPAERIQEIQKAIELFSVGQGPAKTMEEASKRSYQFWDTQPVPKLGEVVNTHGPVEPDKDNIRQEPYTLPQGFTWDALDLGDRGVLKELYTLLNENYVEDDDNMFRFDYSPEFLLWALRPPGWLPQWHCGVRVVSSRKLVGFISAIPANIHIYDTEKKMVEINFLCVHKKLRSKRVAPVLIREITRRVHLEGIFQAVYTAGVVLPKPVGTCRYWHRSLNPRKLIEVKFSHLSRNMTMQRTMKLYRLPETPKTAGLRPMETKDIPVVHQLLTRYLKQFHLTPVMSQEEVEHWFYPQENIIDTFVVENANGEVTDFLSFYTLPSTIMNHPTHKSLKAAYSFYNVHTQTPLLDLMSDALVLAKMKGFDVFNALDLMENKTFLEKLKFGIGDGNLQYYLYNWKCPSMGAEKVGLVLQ
Method: After background correction, IC50 values were determined by fitting the four-parametric variable slope function (GraphPad Prism 5.0), with the stated IC50 values being the mean of two independent assays performed in triplicate.

human NMTs = details: read-out: In Vitro IC50, Reported, cited from earlier work
[5] = Precipitation in rNMT1 buffer, absorbance at 750 nm; assay type: physicochemical; details: 15 min at room temperature
Method: Absorbance at 750 nm was determined after 15 min at room temperature.
and 72 h. Mean of quadruplicate measurements, ± SEM.
(E) Nuclei counts of HeLa cells after exposure to 1-5 for 24, 48 and 72 h. Mean of quadruplicate

[6] = system: N-myristoylation in living cells; details: cited from earlier work
MDA-MB-231 cells = assay: Nuclei counting as a measure for proliferation; assay type: cell-based, human
Method: After 24, 48 or 72 h of exposure, cell viability was evaluated by determination of metabolic activity and counting of cellular nuclei. Metabolic activity was assessed by addition of Cell Titer Blue (Promega), incubation at 37°C and the appropriate percentage of CO2 for 3 h, followed by measuring the absorbance at 490 nm using a PHERAstar (BMG LabTech, Germany). For nuclei counting, cells were fixed with 4% (w/v) paraformaldehyde at room temperature (RT) for 20 min, permeabilised with 0.2% (v/v) Triton X-100 in PBS at RT for 20 min, DNA stained with 1 μg/mL DAPI (Life Technologies, D1306) at RT for 1 h, followed by three washes with PBS. Whole well images for the total number of cells were acquired with an Acumen Cellista (TTP Labtech), using the 405 nm excitation / FL1 (420-500 nm) emission channel. The cell viability was normalised to the negative control (DMSO) and positive control (Staurosporin and puromycin), followed by fitting the four-parametric variable slope function (GraphPad Prism 5.0) to data of quadruplicate experiments.

[7] = Precipitation in growth media
HeLa cells [8] = assay: Cell-cycle distribution by FACS (DNA content, EdU); details: 18 h, 30 μM 4, 10 μM 5
HeLa cells [9] = assay: Apoptosis, active caspase-3 staining by FACS; details: 18 h, 30 μM 4, 10 μM 5
[10] = system: de novo protein synthesis; assay: L-AHA tagging of de novo protein synthesis; assay type: cell-based, human; details: MDA-MB-231 and HeLa; 18 h; 30 μM 4, 10 μM 5
Source text: Cells were subsequently harvested as described before (see Myristic Acid Analogue (YnMyr) Tagging Experiments).

[11] = system: MDA-MB-231 and HeLa cells; assay: Bright-field microscopy; assay type: cell-based, human; details: both cell lines; 18 h; 30 μM 4, 10 μM 5
[12] = system: NMT (in-cell target engagement, ARL1); assay: Sortase A assay (peptide addition to ARL1), murine cells; assay type: cell-based; details: MEF and NIH3T3 cells; 100, 10 and 1 μM 4
Method: as §1

human NMT1 = details: cited from earlier work
[13] = system: lysosomal acid ceramidase; design: method as in Raisova et al., 2002; details: various cancer cell lines, >5 μM 4; ref Raisova et al., 2002; cited from earlier work
Jurkat cells = assay: Metabolic activity (Cell Titer Blue); details: Jurkat (suspension); 10 μM 5 for 72 h
NMT2 = details: ref Rampoldi et al., 2012; cited from earlier work
A375 melanoma = system: A375 melanoma; design: method as in Bhandarkar et al., 2008; details: 11 μM 5, ref Bhandarkar et al., 2008; cited from earlier work
[14] = range of concentrations, 24, 48, 72 h
[15] = recombinant human NMT1, mean of two independent assays in triplicate, values for 3 and 4 extrapolated, read-out: In Vitro IC50, This Article

Row | Structure (SMILES) | hierarchical one-minus Pearson correlation clustering of enrichment of N-myristoylated proteins [2] | N-myristoylation in cells (summary of assays) [3] | concentration at which the compound precipitated (absorbance at 750 nm) [5] | effect on proliferation (nuclei counts) (MDA-MB-231 cells; [14]) | quantification of YnMyr tagging of ten bands [3] | rNMT1 activity [4] | IC50 [4, 15] | depletion of S phase compared with MDA-MB-231 (HeLa cells [8]) | induction of apoptosis compared with MDA-MB-231 (HeLa cells [9]) | decrease in L-AHA labeling [10] | cell morphology [11] | further results
1 | Cc1nn(C)c(C)c1CCOc1c(-c2ccc3c(c2)c(CN(C)C)nn3C)ccc(F)c1F [Compound 2, IMP-1088] | very similar to that of control cells not treated with YnMyr | complete inhibition | above 300 μM | only after 48 and 72 h | – | – | – | – | – | – | – | Kd (both NMTs): ~0.0002 µM; NMT engagement (sortase A) ([1]; all cell lines tested (panel of nine, incl. murine MEF and NIH3T3)): engaged NMT; N-myristoylation in cells (summary of assays) ([3]; listed as IMP-1088): complete and specific inhibition; concentration for complete inhibition of in-cell N-myristoylation above the IC50 toward recombinant NMT1 ([3]; approximately): 30- to 100 fold; IC50 [4]: 0.00024 µM; IC50 (human NMTs; ref Mousnier et al., 2018): < 0.001 µM; N-myristoylation in cells ([6]; low nanomolar concentrations, ref Mousnier et al., 2018): completely inhibited
2 | CCCCCCCCCCCCC(O)C(=O)O (centres unmarked) [Compound 3, 2-hydroxymyristic acid] | do not affect NMT activity | did not inhibit | 300 µM | unaffected | at most a minor reduction | not reduced | > 300 µM | – | – | – | – | NMT inhibition (sortase A) ([1]; Jurkat, HEK293 and NCI-H23 cells, 100, 10 and 1 μM 3): did not inhibit NMT; N-myristoylation in cells (summary of assays) ([3]; listed as 2-Hydroxymyristate): inactive; N-myristoylation in cells (summary of assays) ([3]; listed as 2-hydroxymyristic acid): unaffected; inhibition of recombinant NMT1 ([4]; 100 μM 3, while soluble): did not inhibit; IC50 (human NMTs; ref Paige et al., 1990): 100 µM; metabolic labeling of cells with [3H]myristate ([6]; 100 μM to 1 mM, ref Vaandrager et al., 1996, Tan et al., 2016): reduce metabolic labeling; effect of addition to medium ([7]; 3 at 1 mM, directly or in a mixture with BSA, data not shown): precipitation in the medium and cell death
3 | CCCCCCCCCCCCCC(=O)N[C@H](CO)[C@H](O)c1ccc([N+](=O)[O-])cc1 [Compound 4, D-NMAPPD] | do not affect NMT activity | unaffected | 300 µM | – | at most a minor reduction | not reduced | > 300 µM | correspondingly lower depletion of S phase | less induction of apoptosis | 40%–80% | more rounded apoptotic cells | NMT inhibition (sortase A) ([1]; PC-3 cells, 100, 10 and 1 μM 4): no effect; NMT inhibition (sortase A) [12]: no effect; IC50 (human NMT1; ref Kim et al., 2017, read-out: biochemical human NMT1 IC50): 78 µM; IC50 ([6]; ref Kim et al., 2017, read-out: IC50, capacity to reduce N-myristoylation in living cells): ~15 µM; increase of ceramide concentrations [13]: up to 12 fold; effect on proliferation (nuclei counts) (MDA-MB-231 cells; 30 μM 4, 24, 48, 72 h): hindered proliferation equally at all time points
4 | O=C(/C=C/c1ccccc1)/C=C/c1ccccc1.O=C(/C=C/c1ccccc1)/C=C/c1ccccc1.O=C(/C=C/c1ccccc1)/C=C/c1ccccc1.[Pd].[Pd] [Compound 5, Tris (dibenzylideneacetone) di-palladium] | do not affect NMT activity | unaffected; also recorded: does not inhibit NMT in cells | 10 µM | – | at most a minor reduction | – | 4.2 µM | correspondingly lower depletion of S phase | less induction of apoptosis | 40%–80% | exhibited this phenotype | NMT inhibition (sortase A) and cytotoxicity ([1]; A375, NCI-H929 and PANC1 cells, 10, 1 and 0.1 μM 5): cytotoxic in the absence NMT inhibition; effect on metabolic activity (Jurkat cells): no effect; NMT1 inhibition (claimed selectivity NMT1 vs NMT2) (human NMT1; ref Rampoldi et al., 2012): 0.5 µM; IC50 (human NMTs; ref Bhandarkar et al., 2008): 0.5 to 1.3 µM; precipitation in the media ([7]; cell culture media, black rod-shaped crystals): precipitated in the media; concentrations at which precipitation in growth media was most notable ([7]; growth media of multiple cell lines): over 1 μM; NMT2 inhibition (claimed selectivity NMT1 vs NMT2) (NMT2): 1.3 µM; IC50 (MDA-MB-231 cells; time- and concentration-dependent, 24, 48, 72 h, read-out: IC50 of proliferation (nuclei counts)): ~0.3 µM; decrease in cell count (A375 melanoma): 96%
